# Measurements from ChEMBL document CHEMBL5724558, “Image-based profiling of drug vulnerabilities in CRC organoids” (2024).
# Where “and” joins values, the source holds several entries; their conditions need not be identical. Identical values can stand only once.
# Tests used:
# Type in all cases: functional, Homo sapiens
# Design in all cases: dose or concentration left out as unconfirmed
# Colon cancer organoid [1] = test: (§1) Image-based profiling of donated chemical probes and chemogenomic kinase set in O21 CRC organoid. Image analysis is performed on the sum area metric, and the data were normalized to the DMSO control. After imaging the organoid viability is measured using the OneGloEX Luciferase Assay System. The normalized viability data and sum area are reported.
# Colon cancer organoid [2] = test: as §1, with “O06” for “O21”
# Colon cancer organoid [3] = test: as §1, with “O09” for “O21”
Structure (SMILES),Cell Viability (Colon cancer organoid [1]; Replication number 1),Cell Viability (Colon cancer organoid [1]; Replication number 2),Cell Viability (Colon cancer organoid [2]; Replication number 1),Cell Viability (Colon cancer organoid [2]; Replication number 2),Cell Viability (Colon cancer organoid [3]; Replication number 1),Cell Viability (Colon cancer organoid [3]; Replication number 2)
Cc1ccc(-c2ccc3c(ccc4sc5c(c43)NC[C@@H](C)NC5=O)n2)cn1,108.383% and 98.1185%,106.246% and 104.786%,131.751% and 124.635%,132.52% and 124.216%,114.172% and 105.969%,99.6709% and 79.9055%
CCc1cccc(CC)c1NC(=O)c1nn(C)c2c1CCc1cnc(Nc3ccc(C(=O)NC4CCN(C)CC4)cc3OC(F)(F)F)nc1-2,41.8512% and 75.8188%,49.725% and 74.2713%,–,–,78.2687% and 77.2947%,115.279% and 90.9735%
Nc1ccc(C(=O)Nc2cccc(-c3nc(N4CCOCC4)c4oc5ncccc5c4n3)c2)cn1,74.5315% and 72.4739%,83.2595% and 89.2407%,13.3803% and 32.049%,–,90.7287% and 76.048%,104.901% and 91.2435%
O=C1[C@H](Cc2ccc(O)cc2)N2C(=O)CCN(C(=O)NCc3ccccc3)[C@H]2CN1Cc1cccc2ccccc12,89.9628% and 92.2926%,85.8858% and 90.2148%,96.6982% and 93.2617%,106.282% and 104.195%,80.9835% and 70.711%,121.345% and 94.0767%
Cc1cc(C)cc(C(=O)NOCCCCCC(=O)NO)c1,190.206% and 106.401%,186.718% and 91.8258%,14.9423% and 44.698%,14.9026% and 40.6267%,–,–
CCCCNc1ncc(-c2ccc(CN3CCOCC3)cn2)c(N[C@H]2CC[C@H](O)CC2)n1,74.2042% and 87.3045%,78.7125% and 74.949%,–,–,13.1667% and 26.0723%,15.6613% and 21.4116%
CCOC(=O)Nc1cc(-c2ccc(C)c(NS(C)(=O)=O)c2)nn2c(C)nnc12,101.464% and 109.34%,124.525% and 131.026%,97.2241% and 83.1141%,52.6014% and 56.6383%,56.4078% and 39.4127%,74.2439% and 53.3101%
COc1ccccc1-c1cc(Nc2cccc(CS(N)(=O)=O)c2)ncn1,89.4274% and 95.331%,104.034% and 107.665%,93.0282% and 99.0402%,104.398% and 112.494%,75.7277% and 70.3132%,83.1557% and 105.011%
COc1cc(-c2cn(C)c(=O)c3cnccc23)c(OC)cc1CN(C)C,113.788% and 114.043%,122.408% and 119.749%,102.497% and 103.651%,129.558% and 87.7058%,64.3431% and 76.9706%,65.7343% and 74.6912%
Cn1cc(-c2[nH]c3cc(NC(=O)[C@H](N)C4CCCCC4)cc4c3c2C=NNC4=O)cn1,–,–,9.563% and 27.3752%,–,70.4366% and 51.3636%,57.165% and 41.3025%
COc1cc(Nc2ccnc3ccc(Br)cc23)cc(OC)c1OC,–,–,–,5.197% and 15.2001%,33.1055% and 56.4229%,29.2651% and 46.0292%
CN(C)C(=O)/C(C#N)=C/c1ccc(-c2nc3cnc4[nH]ccc4c3n2C2CCCCC2)o1,101.13% and 96.3421%,107.991% and 97.4755%,174.281% and 154.216%,123.709% and 122.376%,104.012% and 103.69%,101.367% and 106.659%
Cn1cc(-c2ccc3occ(-c4ccccc4-c4ccccc4)c3n2)cn1,120.62% and 121.278%,112.27% and 102.009%,113.014% and 144.526%,79.1768% and 87.7674%,118.722% and 95.2756%,122.009% and 96.5129%
Cn1cc(-c2ccc3occ(-c4cccc(-c5ccncc5)c4)c3n2)cn1,96.3699% and 105.976%,129.888% and 115.611%,105.822% and 114.901%,68.0406% and 107.425%,82.6672% and 85.8718%,87.0318% and 75.2306%
CCCCN(CCCC)C(=O)CN1C[C@@H](c2cc(OC)c3c(c2)OCO3)[C@H](C(=O)O)[C@H]1CC(C)(C)CCC.Cl,63.1584% and 74.5149%,47.1745% and 81.1225%,–,–,42.4098% and 26.0419%,31.2719% and 16.5316%
CN(C)C(=O)/C(C#N)=C/c1ccc(-c2nc3cnc4c(ccn4C)c3n2C2CCCCC2)o1,100.887% and 101.443%,86.9771% and 102.576%,94.8079% and 114.901%,118.022% and 96.0735%,117.89% and 123.735%,132.247% and 113.588%
CN(C)CC#Cc1ccc(OCCCc2sc(N3CCc4cccc(C(=O)Nc5nc6ccccc6s5)c4C3)nc2C(=O)O)c(F)c1 [A-1155463],47.3935% and 102.037%,50.6709% and 99.4222%,0.4141% and 9.206%,0.1987% and 7.04%,–,–

Structure (SMILES),Cell Viability (Colon cancer organoid [1]; Replication number 1),Cell Viability (Colon cancer organoid [1]; Replication number 2),Cell Viability (Colon cancer organoid [2]; Replication number 1),Cell Viability (Colon cancer organoid [2]; Replication number 2),Cell Viability (Colon cancer organoid [3]; Replication number 1),Cell Viability (Colon cancer organoid [3]; Replication number 2)
COc1cc(Nc2ncc3c(n2)-c2ccc(Cl)cc2C(c2c(F)cccc2OC)=NC3)ccc1C(=O)O [ALISERTIB],99.741% and 113.91%,76.2077% and 81.6074%,–,–,29.1632% and 19.7233%,34.5212% and 21.703%
CC(C)[C@H](C(=O)Nc1ccc(C(=O)NO)cc1)c1ccccc1 [AR-42],145.989% and 67.015%,137.871% and 83.2339%,–,8.903% and 23.7546%,–,–
COc1ccc(Oc2cc(NCCC(F)(F)F)c3ncc(-c4ccc(C(=O)NC5CC5)c(C)c4)n3n2)c(F)c1F [BAY-1217389],50.4052% and 66.3415%,55.0801% and 82.9075%,–,–,16.1792% and 31.9152%,23.535% and 27.535%
CC[C@@H]1C(=O)N(C)c2cnc(Nc3ccc(C(=O)NC4CCN(C)CC4)cc3OC)nc2N1C1CCCC1 [BI-2536],25.994% and 61.8815%,31.9179% and 66.7866%,–,–,16.4106% and 42.6367%,20.1367% and 38.0631%
COc1c(OCCCN2CCOCC2)ccc2c1N=C(NC(=O)c1cnc(N)nc1)N1CCN=C21 [COPANLISIB],–,–,2.47% and 7.411%,1.939% and 5.676%,12.735% and 9.949%,17.4919% and 14.9013%
CCN(CCO)CCCOc1ccc2c(Nc3cc(CC(=O)Nc4cccc(F)c4)[nH]n3)ncnc2c1 [DEFOSBARASERTIB],70.1574% and 72.5399%,94.5203% and 86.7079%,–,–,28.5576% and 26.4792%,25.188% and 21.7278%
CN1CCN(Cc2ccc(Nc3ncc(Cl)c(Nc4ccccc4S(=O)(=O)N(C)C)n3)cc2)CC1 [DUBERMATINIB],–,–,1.098% and 2.141%,1% and 3.825%,4.849% and 7.106%,5.761% and 10.5011%
C[C@@H](Oc1cc(-n2cnc3ccc(CN4CCN(C)CC4)cc32)sc1C(N)=O)c1ccccc1C(F)(F)F [GSK-461364],31.4353% and 81.9512%,–,–,–,31.4361% and 40.8914%,27.3036% and 34.2838%
CCn1cc(-c2ccnc3[nH]c(-c4cccc(CN(C)C)c4)cc23)c(-c2ccc(NC(=O)N(C)C)cc2)n1 [GSK-1070916],76.6328% and 71.3589%,81.5265% and 81.1803%,–,–,22.2316% and 23.9614%,25.9157% and 31.5843%
COc1cc2ncn(-c3cc(OCc4ccccc4C(F)(F)F)c(C(N)=O)s3)c2cc1OC [GW843682X],–,21.0036% and 58.1504%,–,–,19.8463% and 25.1831%,19.142% and 23.8097%
CCN1CCN(c2ccc(Nc3cc(N(C)C(=O)Nc4c(Cl)c(OC)cc(OC)c4Cl)ncn3)cc2)CC1 [INFIGRATINIB],70.5365% and 84.7387%,76.3419% and 87.5135%,–,–,23.1721% and 22.7147%,19.8415% and 27.805%
CCS(=O)(=O)Nc1ccc(Oc2ccc(F)cc2F)c(-c2cn(C)c(=O)c3[nH]ccc23)c1 [MIVEBRESIB],39.7622% and 88.1777%,36.307% and 74.642%,–,–,15.7549% and 20.0077%,18.5163% and 23.3766%
N#CC1(c2ccccn2)CCN(Cc2cc(C(=O)O)c(=O)n3ccccc23)CC1 [MSD-M1PAM],89.7237% and 93.8523%,106.363% and 84.1264%,–,–,40.5981% and 75.2157%,57.8261% and 79.5004%
CC(=O)NCC(=O)N1[C@@H]2CC[C@H]1c1ccc(Nc3ncc(C(F)(F)F)c(NC4CCC4)n3)cc12 [PF-03814735],48.6382% and 56.6718%,62.4502% and 65.7393%,–,–,–,33.7645% and 14.7244%
Cn1cc(CNCC2CCN(c3ncc(C(=O)NO)cn3)CC2)c2ccccc21 [QUISINOSTAT],–,–,–,–,11.6805% and 13.0062%,13.8403% and 11.4602%
C=CC(=O)N1CCC([C@@H]2CCNc3c(C(N)=O)c(-c4ccc(Oc5ccccc5)cc4)nn32)CC1 [ZANUBRUTINIB],87.382% and 84.1812%,88.1261% and 101.331%,–,–,34.0987% and 32.6632%,34.2694% and 25.3214%
